According to patent US8426649B2, “Cyclopropenones and the photochemical generation of cyclic alkynes therefrom” (University of Georgia Research Foundation, Inc., priority 2009, dated 2013):
Where two headings read alike, the source gives them in different places.

Tests used:
[1] = literature values (Baskin 2007; Ning/Boons 2008), cited from earlier work
Jurkat cells [2] = test: Cell surface labeling detected by fluorescence intensity of cell lysates (avidin-FITC); format: cell-based, Human; conditions: for Incubation time at which labeling was reaching completion: time course
Experimental: Having established that light activation of cyclopropenones results in the clean formation of the corresponding dibenzocyclooctynes, which can undergo cycloadditions with azides (e.g., metal-free cycloadditions in preferred embodiments) to give corresponding triazoles, attention was focused on labeling living cell modified with azido groups. Thus, Jurkat cells were cultured in the presence of […] of peracetylated N-azidoacetylmannosamine (Ac4ManNAz) for 3 days to metabolically introduce N-azidoacetyl-sialic acid (SiaNAz) groups into glycoproteins and glycolipids. As a negative control, Jurkat cells were employed that were grown in the presence of peracetylated N-acetylmannosamine (Ac4ManNAc). The cells were exposed to 30 micromolar of compound 4b, 5b, and 6b for 1 hour at room temperature. In addition, cells and cyclopropenone 5b were exposed to light (350 nm) for 1 minute to form in-situ cyclooctyne 6b and then incubated for 1 hour at room temperature. Next, the cells were washed and stained with avidin-fluorescein isothiocyanate (FITC) for 15 minutes at 4° C. The efficiency of the two-step cell surface labeling was determined by measuring the fluorescence intensity of the cell lysates.
Jurkat cells were cultured in the presence of […] of peracetylated N-azidoacetylmannosamine (Ac4ManNAz) for 3 days to metabolically introduce N-azidoacetyl-sialic acid (SiaNAz) groups into glycoproteins. As a negative control, Jurkat cells were employed that were grown in the presence of peracetylated N-acetylmannosamine (Ac4ManNAc). The cells were exposed to 30 micromoles of compound 4b, 5b, and 6b for 1 hour at 37° C. In addition, cells and cyclopropenone 5b were exposed to light (350 nm) for 1 minute to form in-situ cyclooctyne 6b and then incubated for 1 hour at 37° C. Next, the cells were washed and stained with avidin-fluorescein isothiocyanate (FITC) for 15 minutes at 4° C. and the efficiency of the two-step cell surface labeling was determined by measuring the fluorescence intensity of the cell lysates.
Jurkat cells were seeded at a density of 75,000 cells mL^−1 in a total volume of 40 mL culture medium in the presence of peracetylated N-azidoacetylmannosamine (Ac4ManNaz; 25 micromolar final concentration) and grown for 3 days, leading to the metabolic incorporation of the corresponding N-azidoacetyl sialic acid (SiaNAz) into their cell surface glycoproteins. Control cells were grown in the presence of peracetylated N-acetylmannosamine (Ac4ManNac; 25 micromolar final concentration) for 3 days. Similarly, CHO cells were grown for 3 days in the presence of Ac4ManNaz (100 micromolar final concentration) or Ac4ManNac (100 micromolar final concentration).
Jurkat cells bearing azides and control cells were washed with labeling buffer (DPBS, pH 7.4 containing 1% FBS and 1% BSA), transferred to round bottom tubes (1×10^6 cells/sample) and incubated with the biotinylated compounds 4b, 5b, or 6b (0-100 micromolar) in labeling buffer for 0-90 minutes at room temperature. To activate 5b in situ, immediately after adding the compound to the cells, the cell suspension was subjected to UV light (350 nm) for 1 minute. The cells were washed three times with cold labeling buffer and then incubated with avidin conjugated with fluorescein (0.5 microgram/ml; Molecular Probes) for 15 minutes at 4° C. Following three washes and cell lysis in passive lysis buffer (Promega), cell lysates were analysed for fluorescence intensity (485 ex/520 em) using a microplate reader (BMG Labtech). Data points were collected in triplicate and are representative of three separate experiments. Fluorescence of Jurkat cell lysates was expressed as fluorescence (arbitrary units; AU) per 800,000 cells.

Jurkat cells [3] = test: Western blot analysis of cell surface labeling; format: cell-based, Human; conditions: 30 micromolar, 1 hour; 5b in-situ activated
Experimental: To identify the nature of the azide-labeled Jurkat glycoconjugates, cell lysates were analyzed by Western blot analysis (FIG. 8). Jurkat cells grown for 3 days in the presence of Ac4ManNAc or Ac4ManNAz were incubated with compounds in-situ activated 5b or 6b (30 micromolar) and then lysed. The Western blot was probed with an anti-biotin antibody conjugated to horseradish peroxidase (HRP). […] Furthermore, similar patterns of labeling were apparent after incubation with in-situ activated 5b and 6b.
Jurkat cells were harvested by centrifugation (5 minutes at 1,400 rpm) and resuspended as 5×10^6 cells/mL. The cell suspensions (250 microliters per sample) were incubated with biotin-conjugated alkynes 4b, 5b, and 6b (30 micromolar) or without compound as control for 1 hour. To activate 5b in situ, immediately after adding the compound to the cells, the cell suspension was subjected to UV light (350 nm) for 1 minute. The cells were washed (4×10 minutes) with cold DPBS, pH 7.4 containing FBS (1%) and lysed in passive lysis buffer. The cell lysates were clarified by centrifugation at 15,000 rpm for 15 minutes and the total protein content of the clear supernatants was assessed using the bicinchonic acid assay (BCA; Pierce Biotechnology). […]

CHO cells = test: Detection of cell labeling by fluorescence microscopy; format: cell-based, Chinese hamster
Experimental: Next, attention was focused on visualizing azido-containing glycoconjugates of living cells by confocal microscopy. Thus, adherent Chinese hamster ovary (CHO) cells were cultured in the presence of Ac4ManNAz (100 μM) for three days. The resulting cell surface azido groups were reacted with in situ generated 6b (30 μM) and then visualized with avidin-Alexa fluor 488.
CHO cells bearing azides and untreated control cells were transferred to glass coverslips and cultured for 36 hours in their original medium. Live CHO cells were treated with the biotinylated compound 5b (30 micromolar) in labeling buffer (DPBS, supplemented with FBS (1%)) for 1 hour at room temperature. To activate 5b in situ, immediately after adding the compound to the cells, the cells were subjected to UV light (350 nm) for 1 minute. Next, the cells were incubated with avidin conjugated with Alexa Fluor 488 (Molecular Probes) for 15 minutes at 4° C. Cells were washed 3 times with labeling buffer and fixed with formaldehyde (3.7% in PBS). The nucleus was labeled with the far red-fluorescent TO-PRO-3 dye (Molecular Probes). The cells were mounted with PermaFluor (Thermo Electron Corporation) before imaging. Initial analysis was performed on a Zeiss Axioplan2 fluorescent microscope. […] The step size, based on the calculated optimum for each objective, was between 0.25 and 0.5 micrometers. […]

Jurkat cells [4] = test: Measurement of cytotoxicity (trypan blue exclusion, MTT); format: cell-based, Human
Experimental: Cell viability was also examined after incubation with 5b with and without light activation followed by reincubation for 5 hours (see Examples). In both cases, the ability of the cells to reduce MTT to its insoluble formazan salt was […].
Cell viability and cell morphology were assessed by exclusion of trypan blue followed microscopic evaluation immediately after photoactivation or after reincubation of the labeled cells in cell culture medium for 5 hours or overnight. Viability was measured by quantifying the cellular ability to reduce the water-soluble tetrazolium dye 3-4,5-dimethylthiazole-2,5-diphenyl tetrazolium bromide (MTT) to its insoluble formazan salt (e.g., Sgouras et al., J. Mater. Sci.: Materials in Medicine 1990, 1:61-68). Data points were collected in triplicate and expressed as normalized values for control cells (100%).

[5] = 30 micromolar, 1 hour, room temperature, cells grown with Ac4ManNAz
[6] = 30 micromoles, 1 hour at 37° C., cells grown with Ac4ManNAz

O=C(O)COC1CCC#CC(F)(F)CC1 (centres unmarked) [2-[(6,6-difluoro-4-cyclooctyn-1-yl)oxy]-acetic acid]
Reported rate of the reaction of cyclooctynes with benzyl azide [1]: 0.076 M⁻¹ s⁻¹

OC1Cc2ccccc2C#Cc2ccccc21 (centres unmarked) [4a, 11,12-didehydro-5,6-dihydro-dibenzo[a,e]cycloocten-5-ol]
Reported rate of the reaction of cyclooctynes with benzyl azide ([1]; listed as 11,12-didehydro-5,6-dihydro-dibenzo[a,e]cycloocten-5-ol): 0.0568 M⁻¹ s⁻¹ | Reported rate of the reaction of cyclooctynes with benzyl azide [1]: 0.17 M⁻¹ s⁻¹

O=C(CCCC[C@@H]1SC[C@@H]2NC(=O)N[C@@H]21)NCCOCCOCCOCCNC(=O)OC1Cc2ccccc2C#Cc2ccccc21 (stereo partly drawn) [4b, 11,12-didehydro-5,6-dihydrodibenzo[a,e]cycloocten-5-yl ester of 19-[(3aS,4S,6aR)-hexahydro-2-oxo-1H-thieno[3,4-d]imidazol-4-yl]-15-oxo-5,8,11-trioxa-2,14-diazanonadecanoic acid, reference compound]
Cell surface labeling (fluorescence intensity of cell lysates) (Jurkat cells [2]; [5]): strong labeling | Cell surface labeling (fluorescence intensity of cell lysates) (Jurkat cells [2]; [6]): strong labeling | Incubation time at which labeling was reaching completion (Jurkat cells [2]; 30 micromolar): 60 min

CCCCOc1ccc2c(c1)CCc1cc(OCCOCCOC(=O)NCCOCCOCCNC(=O)CCCCC3SCC4NC(=O)NC43)ccc1-c1c-2c1=O (centres unmarked) [5b, 2-{2-[(9-Butoxy-1-oxo-6,7-dihydro-1H-dibenzo[a,e]cyclopropa-[c][8]annulen-4-yl)oxy]ethoxy}ethyl {2-[2-(2-{[5-(2-oxohexahydro-1H-thieno[3,4-d]imidazol-4-yl)pentanoyl]amino}ethoxy)ethoxy]ethyl}carbamate]
Glycoprotein labeling on Western blot (anti-biotin-HRP) (Jurkat cells [3]): Significant glycoprotein labeling was only observed in lysates from cells grown in the presence of Ac4ManNAz | Staining (confocal microscopy, avidin-Alexa fluor 488) (CHO cells; in the dark, cells metabolically labeled with ManNAz): negligible staining | Cell viability and morphology (trypan blue exclusion) (Jurkat cells [4]; 30 micromolar 5b with and without UV light activation (1 minute at 350 nm)): no changes were observed | Ability of the cells to reduce MTT to formazan (Jurkat cells [4]; with and without light activation, reincubation for 5 hours): negligible | Cell surface labeling (fluorescence intensity of cell lysates) (Jurkat cells [2]; [6]): strong labeling | Cell surface labeling (fluorescence intensity of cell lysates) (Jurkat cells [2]; in the dark (no activation), 30 micromolar, 1 hour, room temperature): low fluorescence intensities | Cell surface labeling (fluorescence intensity of cell lysates) (Jurkat cells [2]; in the dark (no activation), 1 hour at 37° C.): low fluorescence intensities | Cell surface labeling (fluorescence intensity of cell lysates) (Jurkat cells [2]; in-situ activation, 350 nm 1 minute, then 1 hour at 37° C.): equally efficient cell labeling | Cell surface labeling (fluorescence intensity of cell lysates) (Jurkat cells [2]; in-situ activation, 350 nm 1 minute, then 1 hour at room temperature, 30 micromolar): equally efficient cell labeling

CCCCOc1ccc2c(c1)CCc1cc(OCCOCCOC(=O)NCCOCCOCCNC(=O)CCCCC3SCC4NC(=O)NC43)ccc1C#C2 (centres unmarked) [6b, 2-{2-[(9-Butoxy-5,6-didehydro-11,12-dihydrodibenzo[a,e][8]annulen-2-yl)oxy]ethoxy}ethyl {2-[2-(2-{[5-(2-oxohexahydro-1H-thieno[3,4-d]imidazol-4-yl)pentanoyl]amino}ethoxy)ethoxy]ethyl}carbamate]
Glycoprotein labeling on Western blot (anti-biotin-HRP) (Jurkat cells [3]): Significant glycoprotein labeling was only observed in lysates from cells grown in the presence of Ac4ManNAz | Staining of azido-containing glycoconjugates (confocal microscopy, avidin-Alexa fluor 488) (CHO cells; in situ generated, 30 μM, cells grown with Ac4ManNAz 100 μM): staining was only observed at the cell surface | Cell surface labeling (fluorescence intensity of cell lysates) (Jurkat cells [2]; [5]): strong labeling | Fluorescent reading compared with 4b (Jurkat cells [2]; at low concentration): somewhat higher fluorescent reading than 4b | Incubation time at which labeling was reaching completion (Jurkat cells [2]; 30 micromolar): 60 min
